This is an account of results in PMC12294558, “New 1,2,4-Triazole Derivatives with a N-Mannich Base Structure Based on a 4,6-Dimethylpyridine Scaffold as Anticancer Agents: Design, Synthesis, Biological Evaluation, and Molecular Modeling” (International Journal of Molecular Sciences, 2025).

Type in all cases: cell-based, human
The test system of one data set is LoVo/Dx cells. The data set can be described thus: MTT viability assay, doxorubicin-resistant LoVo/Dx. Particulars: for SI, LoVo/Dx: CC50 CCD 841 CoTr / CC50 LoVo/Dx; for CC50: Homo sapiens, LoVo/DX, MTT, 24 h, read-out: CC50 ± SD, LoVo/Dx. The procedure: (§1) The cytotoxic effects of ten newly synthesized N-Mannich bases were assessed on the normal human intestinal epithelium (CCD 841 CoTr) and cancer cell lines: gastric cancer (EPG) and four colorectal cancer lines (Caco-2, LoVo, LoVo/Dx, and HT-29). Cell viability was evaluated using the MTT assay in accordance with Annex C of ISO 10993-5 [33].
(§2) The biological activity of the newly synthesized compounds was assessed in the context of anticancer activity. For this purpose, several gastrointestinal cancer lines were selected: gastric cancer (EPG 257, which belongs to the collection of the Laboratory of Cell Culture and Advanced Therapy at the University of Environmental and Life Sciences in Wrocław), and four colorectal cancer cell lines (LoVo, Caco-2, and HT-29) were obtained from the European Collection of Authenticated Cell Cultures (ECACC) and were delivered by Sigma-Aldrich, a certified distributor for the biobank. Additionally, LoVo cells were used to develop a doxorubicin-resistant subline, referred to as LoVo/Dx. Resistance was induced through gradual adaptation to increasing concentrations of doxorubicin, starting from 0.1 µg/mL and incrementally raised to 0.8 µg/mL. After reaching the maximum concentration, the cells were maintained in a medium containing 0.4 µg/mL doxorubicin for a period of three months to stabilize the resistant phenotype. […] The resulting LoVo/Dx subline, resistant to doxorubicin, was cultured in DMEM/F-12 medium and utilized in assays evaluating the effectiveness of novel compounds against multidrug-resistant cancer cells. […] The non-cancerous cell control was normal colonic epithelial cells (CCD 841 CoTr from American Type Culture Collection, (ATCC, Manassas, VA, USA)). Cell cultures were performed under standard conditions (5% CO2, 95% humidity, and 37 °C). Each cell line was cultured in the recommended medium: (1) HT-29 in McCoy’s 5a, (2) Caco-2 in Minimal Essential Medium (MEM, Biological Industries, Beit Haemek, Israel), (3) CCD 841 CoTr in Dulbecco’s Modified Eagle Medium (DMEM, Biological Industries, Beit Haemek, Israel), (4) LoVo in Dulbecco’s Modified Eagle Medium/F-12 (DMEM/F-12; Biological Industries, Beit Haemek, Israel), (5) LoVo/Dx in DMEM/F-12, and (6) EPG in DMEM. Culture media were supplemented with 10% fetal bovine serum (FBS, Sigma-Aldrich, Darmstadt, Germany) and antibiotics (penicillin and streptomycin; Sigma-Aldrich, Darmstadt, Germany). For assays, trypsinized (TrypLE solution, Thermo Fisher Scientific, Waltham, MA, USA) cells were seeded at appropriate densities of 10,000 cells per well for MTT and determination of apoptotic and necrotic cell numbers; 30,000 cells per well for the rhodamine accumulation assay; and 500,000 cells per well for ELISA tests.
(§3) The cytotoxicity of the compounds and drugs used as controls was assessed using the MTT assay. The assay also included a DMSO control. After seeding and allowing the cells to adhere overnight, they were treated with the tested compounds and drugs for another 24 h. After this time, the supernatant was removed, and a 1 mg/mL MTT solution was added for 2 h in 5% CO2, 95% humidity, at 37 °C. The supernatant was then removed, and isopropanol was added to dissolve the purple crystals over 30 min by shaking. Absorbance was measured at 570 nm in a Multiskan GO microplate reader (Thermo Fisher Scientific; Waltham, MA, USA). All reagents used for the assays were purchased from Sigma-Aldrich, Darmstadt, Germany.
(§4) Biological assays were performed in three independent replicates, each involving four samples. ELISA determinations were repeated three times.

For a further data set, the system named is LoVo cells. The data set can be described thus: MTT viability assay, colorectal cancer cells LoVo. Particulars: for SI, LoVo: CC50 CCD 841 CoTr / CC50 LoVo; for CC50: Homo sapiens, LoVo, MTT, 24 h, Non-toxic = no toxicity in tested range 1–500 μM, read-out: CC50 ± SD, LoVo. The method, then:
as §1, §2, §3, §4
In general terms: Tetrazolium dyes change colour on reduction, which living cells bring about.

The test system of another data set is Caco-2 cells. Nature of the data set: MTT viability assay, colorectal cancer cells Caco-2. Particulars: for SI, Caco-2: CC50 CCD 841 CoTr / CC50 Caco-2; for CC50: Homo sapiens, Caco-2, MTT, 24 h, read-out: CC50 ± SD, Caco-2. The method, then:
as §1, §2, §3, §4

The next data set deals with HT-29 cells. Nature of the data set: MTT viability assay, colorectal cancer cells HT-29. The following applies: for SI, HT-29: CC50 CCD 841 CoTr / CC50 HT-29; for CC50: Homo sapiens, HT-29, MTT, 24 h, read-out: CC50 ± SD, HT-29. The procedure:
as §1, §2, §3, §4

A short description of data set [1]: MTT viability assay, normal colonic epithelial cells. Particulars: human, CCD 841 CoTr normal colonic epithelial cells, Non-toxic = no toxicity in tested range 1–500 μM, read-out: CC50 ± SD, CCD 841 CoTr. The procedure: as §1, §2, §3, §4
For another data set, the system named is EPG cells. Nature of the data set: MTT viability assay, gastric cancer cells. Particulars: for SI, EPG: CC50 CCD 841 CoTr / CC50 EPG; for CC50: Homo sapiens, MTT, 24 h, read-out: CC50 ± SD, EPG. The method, then: as §1, §2, §3, §4
For another data set, the system named is CCD 841 CoTr cells. Nature of the data set: MTT viability assay, normal colonic epithelial cells. Particulars: 24 h, Non-toxic = no toxicity in tested range 1–500 μM. The procedure:
as §1, §2, §3, §4

Structures are written as SMILES. Marks after values point to notes of the source that are not given here.

Take `Cc1cc(C)c(C(=O)NCc2nn(CN3CCN(c4ccccc4)CC3)c(=S)n2-c2ccccc2)c(S)n1` [Compound 4]: in the data set with LoVo/Dx cells, the “SI, LoVo/Dx” value is 1.17 and the CC50 amounted to 201 ± 4.1 µM. In the data set on LoVo cells, the “SI, LoVo” value is on record as 1.18 and the CC50 came to 201 ± 4.6 µM. In addition, in the data set on Caco-2 cells, the “SI, Caco-2” value stood at 1.78 and the CC50 is 133 ± 2.7 µM. In addition, in the data set with HT-29 cells, the “SI, HT-29” value is on record as 1.26 and the CC50 came to 187.6 ± 1.6 µM. The CC50 at 24 h in data set [1] worked out at 236 ± 3.5 µM. In addition, in the data set with EPG cells, the “SI, EPG” value was found to be 1.68 and the CC50 was determined as 141 ± 2.5 µM.
As to `O=c1[nH]cc(F)c(=O)[nH]1` [Compound 5-FU, 5-fluorouracil, reference compound], in the data set with LoVo/Dx cells, the “SI, LoVo/Dx” value is listed as 0.27 and the CC50 stood at 226 ± 2.7 µM. Moreover, in the data set with LoVo cells, the “SI, LoVo” value stood at 0.85 and the CC50 stood at 72.2 ± 1.8 µM. In the data set with Caco-2 cells, the “SI, Caco-2” value came out at 0.36 and the CC50 turned out to be 170 ± 3.7 µM. Besides, in the data set with HT-29 cells, the “SI, HT-29” value was 0.14 and the CC50 worked out at 428.5 ± 2.7 µM. In data set [1], the CC50 at 24 h amounted to 61.6 ± 3.7 µM. Also, in the data set on EPG cells, the “SI, EPG” value stood at 0.55 and the CC50 amounted to 111 ± 3.5 µM.
`Cc1cc(C)c(C(=O)NCc2nn(CN3CCN(c4ccc([N+](=O)[O-])cc4)CC3)c(=S)n2-c2ccccc2)c(S)n1` [Compound 8]: in the data set on LoVo/Dx cells, the “SI, LoVo/Dx” value is on record as >>1 ^c and the CC50 was 321 ± 6.8 µM. Also, in the data set on LoVo cells, the “SI, LoVo” value is >>1 ^c and the CC50 was found to be 178 ± 5.3 µM. For the same compound, in the data set with Caco-2 cells, the “SI, Caco-2” value is >>1 ^c and the CC50 amounted to 84.3 ± 6.8 µM. In the data set with HT-29 cells, the “SI, HT-29” value was >>1 ^c and the CC50 is 306 ± 4.9 µM. Moreover, the “CC50 ± SD, CCD 841 CoTr” value with CCD 841 CoTr cells was “Non-toxic ^b”. Besides, in the data set on EPG cells, the “SI, EPG” value is given as >>1 ^c and the CC50 amounted to 142 ± 6.3 µM.
On to `Cc1ccc(N2CCN(Cn3nc(CNC(=O)c4c(C)cc(C)nc4S)n(C)c3=S)CC2)cc1` [Compound 11], for which, in the data set with LoVo/Dx cells, the “SI, LoVo/Dx” value is 1.06 and the CC50 was 255 ± 4.8 µM. In the data set with LoVo cells, the “SI, LoVo” value is 1.98 and the CC50 was 137 ± 5.7 µM. In addition, in the data set on Caco-2 cells, the “SI, Caco-2” value amounted to 4.69 and the CC50 was 57.7 ± 4.8 µM. In addition, in the data set on HT-29 cells, the “SI, HT-29” value stood at 1.12 and the CC50 was determined as 242 ± 4.1 µM. Moreover, in data set [1], the CC50 at 24 h amounted to 271 ± 7.1 µM. Moreover, in the data set with EPG cells, the “SI, EPG” value worked out at 2.28 and the CC50 was found to be 119 ± 3.4 µM.
Take `Cc1cc(C)c(C(=O)NCc2nn(CN3CCN(c4cccc(Cl)c4)CC3)c(=S)n2C(C)C)c(S)n1` [Compound 12, 4,6-dimethyl-N-[(4-(propan-2-yl)-5-thioxo-2-{[4-(3-chlorophenyl)piperazinyl]-methyl}-4,5-dihydro-1H-1,2,4-triazol-3-yl)methyl]-2-sulfanylpyridine-3-carboxamide]: in the data set with LoVo/Dx cells, the “SI, LoVo/Dx” value is 0.70 and the CC50 worked out at 487 ± 5.9 µM. Also, in the data set on LoVo cells, the “SI, LoVo” value was determined as 0.77 and the CC50 amounted to 445.9 ± 2.3 µM. Besides, in the data set on Caco-2 cells, the “SI, Caco-2” value is 1.39 and the CC50 worked out at 247 ± 4.9 µM. In addition, in the data set with HT-29 cells, the “SI, HT-29” value is 0.73 and the CC50 turned out to be 471.2 ± 3.7 µM. For the same compound, in data set [1], the CC50 at 24 h was 342.5 ± 3.4 µM. In the data set with EPG cells, the “SI, EPG” value was 1.30 and the CC50 was 263 ± 5.7 µM.
Take `Cc1cc(C)c(C(=O)NCc2nn(CN3CCN(c4ccc([N+](=O)[O-])cc4)CC3)c(=S)n2C(C)C)c(S)n1` [Compound 13]: in the data set on LoVo/Dx cells, the “SI, LoVo/Dx” value was determined as 1.04 and the CC50 was determined as 419 ± 6.2 µM. In the data set on LoVo cells, the “SI, LoVo” value worked out at 2.26 and the CC50 was 193 ± 3.7 µM. In the data set on Caco-2 cells, the “SI, Caco-2” value turned out to be 2.98 and the CC50 came to 146 ± 3.6 µM. Further, in the data set on HT-29 cells, the “SI, HT-29” value is given as 1.11 and the CC50 stood at 393 ± 7.4 µM. Also, the CC50 at 24 h in data set [1] was 436.1 ± 2.7 µM. Besides, in the data set with EPG cells, the “SI, EPG” value is listed as 3.63 and the CC50 worked out at 120 ± 8.5 µM.
